# Key:
# [1] = biological target: Ralstonia pickettii 12D FAD dependent oxidoreductase (SEQ ID NO:9), variant QYY, S327Q/S366Y/A473Y (Ralstonia pickettii, UniProt A0ABM9ITV6, A473Y/S327Q/S366Y); assay type: biochemical
# [2] = biological target: Ralstonia solanacearum IPO1609 transmembrane dehydrogenase, wild type, SEQ ID NO:10 (Ralstonia solanacearum, UniProt A0ABF7REW7)
# [3] = biological target: Burkholderia thailandensis TXDOH hypothetical protein BthaT_07876 (SEQ ID NO:8), variant QYY, S324Q/S363Y/A470Y (Burkholderia thailandensis, UniProt Q2T5D8, A470Y/S324Q/S363Y)
# [4] = biological target: Burkholderia cepacia KS1 glucose dehydrogenase (α-subunit SEQ ID NO:3), variant QYA (QY), 326Gln+365Tyr (Burkholderia cepacia, UniProt Q8GQE7, S326Q/S365Y); assay type: biochemical; conditions: pH 7
# [5] = biological target: Burkholderia cepacia KS1 glucose dehydrogenase (α-subunit SEQ ID NO:3), variant QYY, 326Gln+365Tyr+472Tyr (Burkholderia cepacia, UniProt Q8GQE7, A472Y/S326Q/S365Y); assay type: biochemical; conditions: pH 7
# [6] = biological target: Burkholderia cepacia KS1 glucose dehydrogenase (α-subunit SEQ ID NO:3), variant QYR, 326Gln+365Tyr+472Arg (Burkholderia cepacia, UniProt Q8GQE7, A472R/S326Q/S365Y); assay type: biochemical; conditions: pH 7
# [7] = biological target: Burkholderia cenocepacia J2315 putative oxidoreductase (SEQ ID NO:7), variant QYY, S326Q/S365Y/A472Y (Burkholderia cenocepacia, UniProt B4ELB3, A472Y/S326Q/S365Y); assay type: biochemical; conditions: read-out: Km (Mal)
# [8] = biological target: Ralstonia pickettii 12D FAD dependent oxidoreductase, wild type, SEQ ID NO:9 (Ralstonia pickettii, UniProt A0ABM9ITV6)
# [9] = tested on: OC[C@H]1OC(O)[C@H](O)[C@@H](O)[C@@H]1O; experiment: cells, lysate or membranes named
# [10] = tested on: OC[C@H]1O[C@H](O[C@H]2[C@H](O)[C@@H](O)C(O)O[C@@H]2CO)[C@H](O)[C@@H](O)[C@@H]1O; experiment: cells, lysate or membranes named; conditions: pH 7.0
molecule,measurement,setting,value
"OC[C@H]1OC(O)[C@H](O)[C@@H](O)[C@@H]1O (some centres unmarked) [Glucose, glucose]",Vmax (Glc),[1],1.62 U/mL
same,Vmax (Glc),[2],0.14 U/mL
same,Vmax (Glc),[3],48.8 U/mL
same,Vmax (Glc.),[4],Vmax (Glc.) = 149.3 U/mg protein
same,Vmax (Glc.),[5],Vmax (Glc.) = 131.6 U/mg protein
same,Vmax (Glc.),[6],Vmax (Glc.) = 93.5 U/mg protein
"OC[C@H]1O[C@H](O[C@H]2[C@H](O)[C@@H](O)C(O)O[C@@H]2CO)[C@H](O)[C@@H](O)[C@@H]1O (some centres unmarked) [Mal, maltose]",Vmax (Mal),[2],0.14 U/mL
same,Km,[7],> 100000 µM
same,Vmax (Mal),[8],0.94 U/mL
(Burkholderia cenocepacia J2315),Km,[9]; pH 7.0,110 µM
same,Vmax,[9]; pH 7.0,2.05 U/mL
same,Km,[10],1300 µM
same,Vmax,[10],1.87 U/mL
(Burkholderia cepacia),Km,[9]; pH 7.5,1350 µM
same,Vmax,[9]; pH 7.5,100 µmol/min/mg
(Ralstonia pickettii),Km,[10],2020 µM
(Ralstonia solanacearum IPO1609),Km,[10],2640 µM

# Source: patent US20120107903A1 (priority 2010, published 2012)
